Experimental data reported in paper PMC6814738, “Bacterial MgrB peptide activates chemoreceptor Fpr3 in mouse accessory olfactory system and drives avoidance behaviour” (Nature Communications, 2019).
Peptide text beside a SMILES is read from it. * marks the point of attachment. For = O=C*

Target: T1, mouse Fpr3 (Fpr-rs1) (Mus musculus, UniProt O08790)
T1 construct: expressed in transfected cells; host or cells: HEK293T (DSMZ # ACC-635), transient transfection with jetPEI
T1 sequence (O08790 1-351): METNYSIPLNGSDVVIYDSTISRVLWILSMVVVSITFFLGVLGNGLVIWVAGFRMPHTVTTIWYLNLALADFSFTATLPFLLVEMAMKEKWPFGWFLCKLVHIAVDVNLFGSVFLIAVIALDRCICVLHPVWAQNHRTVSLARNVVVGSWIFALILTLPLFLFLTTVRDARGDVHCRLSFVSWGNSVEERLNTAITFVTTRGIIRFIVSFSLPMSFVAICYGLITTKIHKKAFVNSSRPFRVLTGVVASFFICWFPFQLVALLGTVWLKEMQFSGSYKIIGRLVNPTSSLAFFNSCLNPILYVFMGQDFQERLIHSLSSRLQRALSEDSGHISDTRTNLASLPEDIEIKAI
Test: Concentration-response Ca2+ imaging of Fpr3-transfected HEK293T cells (Fig. 2f, h, j)
Format: cell-based
Conditions: Ca2+ responses of Fpr3-transfected HEK293T; Fluo-4/AM, FLIPR; buffer C1 pH 7.2; Fig. 2f, h, j
Experimental: An Fpr3 gene subcloned from genomic DNA of C57BL/6J mice into pcDNA3.1 (Invitrogen) was used in heterologous experiments[21],[80]. HEK293T (DSMZ # ACC-635) cells were seeded at 20–30% confluence on poly-D-lysine-coated (10 µg/ml in PBS) black 96-well µCLEAR-Plates (Greiner Bio-One). Cells were transfected 24 h later using jetPEI™ (Polyplus-transfection SA) according to the manufacturer’s protocol for 96-well transfections. For Ca^2+ imaging experiments, 0.125 µg of DNA plasmid encoding Fpr3 were cotransfected with equal amounts of a plasmid encoding Gα16, a promiscuous G protein α-subunit. Ca^2+ signals to agonist stimulation were recorded 48 h post transfection using the Ca^2+ indicator dye Fluo-4/AM (Molecular Probes) and a fluorescence imaging plate reader (FLIPR) system (Molecular Devices).
We used custom-made peptides with a length of 6–21 amino acids to screen for agonists. Sequences of fMet peptides were designed according to motifs present at the N-termini of 15,125 specific bacterial proteins as annotated in UniProt. Peptides were chemically synthesised, purified, and verified by mass spectroscopy (MALDI-TOF) by commercial suppliers. […] Source, sequence and purity of each peptide are listed in Supplementary Data 1. Lyophilised peptides were routinely dissolved in the Ca^2+ imaging assay buffer C1 (130 mM NaCl, 10 mM HEPES, 5 mM KCl, 2 mM CaCl2, 5 mM glucose, pH 7.2) as 0.2–1 mM stock solutions and kept in small aliquots at −20 °C until use.

## CSCC[C@H](NC=O)C(=O)N[C@@H](CCCCN)C(=O)N[C@@H](CCCCN)C(=O)N[C@@H](Cc1ccccc1)C(=O)N[C@@H](CCCNC(=N)N)C(=O)N[C@@H](Cc1c[nH]c2ccccc12)C(=O)O [f-MKKFRW] (For-MKKFRW-OH)
  EC50: 7.7 µM
